In ChEMBL document CHEMBL3046768, “New antiepileptic agents: structureactivity relationships” (Med Chem Res, 2012):

Tests used:
[1] = tested on: Mus musculus; experiment: Anticonvulsant activity in ip dosed Mus musculus (mouse) assessed as inhibition of maximal electroshock-induced seizure; type: functional; settings: for ED50: Mus musculus, ip
[2] = tested on: Rattus norvegicus; experiment: Anticonvulsant activity in po dosed Rattus norvegicus (rat) assessed as inhibition of maximal electroshock-induced seizure after 4 hr; type: functional
[3] = tested on: Mus musculus; experiment: Protective index, ratio of TD50 for ip dosed Mus musculus (mouse) to ED50 for ip dosed Mus musculus (mouse) assessed as inhibition of maximal electroshock-induced seizure; type: functional
[4] = Toxicity in ip dosed maximal electroshock-induced seizure Mus musculus (mouse) model; type: organism-based; settings: in vivo
[5] = target: T1, 5-hydroxytryptamine receptor 2C (Homo sapiens, UniProt P28335); experiment: (§1) Agonist activity at Homo sapiens (human) 5-HT2C receptor assessed as 5-HT-induced calcium mobilization by cell based assay; type: functional
T1 sequence (P28335 whole entry): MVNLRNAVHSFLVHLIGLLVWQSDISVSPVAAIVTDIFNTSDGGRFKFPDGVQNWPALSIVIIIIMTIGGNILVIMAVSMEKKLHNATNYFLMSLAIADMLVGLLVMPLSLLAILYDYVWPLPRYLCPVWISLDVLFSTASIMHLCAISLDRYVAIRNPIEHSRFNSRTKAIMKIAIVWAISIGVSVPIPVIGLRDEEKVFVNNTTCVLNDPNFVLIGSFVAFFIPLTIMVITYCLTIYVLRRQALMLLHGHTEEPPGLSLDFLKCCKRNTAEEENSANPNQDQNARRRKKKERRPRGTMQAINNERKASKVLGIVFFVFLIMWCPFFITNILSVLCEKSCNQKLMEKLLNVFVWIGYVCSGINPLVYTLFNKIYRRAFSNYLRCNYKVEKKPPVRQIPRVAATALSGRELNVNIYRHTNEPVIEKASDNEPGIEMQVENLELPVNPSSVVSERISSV

[6] = target: T2, 5-hydroxytryptamine receptor 2C (Homo sapiens) (UniProt P28335); experiment: as §1; type: functional
T2 sequence (whole entry): T1 sequence (P28335 whole entry)

[7] = species on record: Rattus norvegicus; experiment: Anticonvulsant activity in Rattus norvegicus (rat) assessed as inhibition of maximal electroshock-induced seizure; type: functional
[8] = species on record: Mus musculus; experiment: Anticonvulsant activity in Mus musculus (mouse) assessed as inhibition of maximal electroshock-induced seizure; type: functional
[9] = tested on: Mus musculus; experiment: Anticonvulsant activity in ip dosed Mus musculus (mouse) assessed as inhibition of subcutaneous metrazol-induced seizure; type: functional
[10] = target: T1, 5-hydroxytryptamine receptor 2C; experiment: Agonist activity at Homo sapiens (human) 5-HT2C receptor
[11] = Toxicity in po dosed maximal electroshock-induced seizure Rattus norvegicus (rat) model; type: organism-based; settings: in vivo
[12] = tested on: Rattus norvegicus; experiment: Protective index, ratio of TD50 for po dosed Rattus norvegicus (rat) to ED50 for anticonvulsant activity in po dosed rat assessed as inhibition of maximal electroshock-induced seizure; type: functional
[13] = species on record: Mus musculus; experiment: Protective index, ratio of TD50 for Mus musculus (mouse) to […] for Mus musculus (mouse) assessed as inhibition of maximal electroshock-induced seizure; type: functional
[14] = Oral bioavailability in Rattus norvegicus (rat); type: ADME, organism-based; settings: in vivo
[15] = target: 5-hydroxytryptamine receptor 2A (Homo sapiens) (UniProt P28223); experiment: Agonist activity at Homo sapiens (human) 5-HT2A receptor assessed as 5-HT-induced phosphoinositide hydrolysis by cell based assay; set-up: scale not given: the % may be the effect or the level left
Chain of 5-hydroxytryptamine receptor 2A (Homo sapiens) (P28223 whole entry): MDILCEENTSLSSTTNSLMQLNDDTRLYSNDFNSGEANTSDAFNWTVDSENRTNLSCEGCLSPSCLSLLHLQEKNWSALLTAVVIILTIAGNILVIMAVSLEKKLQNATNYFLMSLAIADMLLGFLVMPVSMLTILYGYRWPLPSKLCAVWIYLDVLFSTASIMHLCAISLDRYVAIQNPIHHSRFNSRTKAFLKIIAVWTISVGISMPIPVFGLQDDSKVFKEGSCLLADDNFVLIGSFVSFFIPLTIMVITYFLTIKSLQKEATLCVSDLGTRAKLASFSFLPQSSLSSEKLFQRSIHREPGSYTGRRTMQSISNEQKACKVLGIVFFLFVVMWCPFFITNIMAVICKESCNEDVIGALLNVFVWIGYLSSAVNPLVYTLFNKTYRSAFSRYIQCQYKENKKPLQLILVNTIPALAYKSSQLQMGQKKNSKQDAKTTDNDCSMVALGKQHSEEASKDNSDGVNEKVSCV

[16] = target: T1, 5-hydroxytryptamine receptor 2C; experiment: Agonist activity at Homo sapiens (human) 5-HT2C receptor assessed as calcium mobilization by cell based assay; type: functional
[17] = tested on: Mus musculus; experiment: Anticonvulsant activity in ip dosed Mus musculus (mouse) assessed as inhibition of subcutaneous pentylene tetrazole-induced seizure; type: functional
[18] = tested on: Rattus norvegicus; experiment: Anticonvulsant activity in po dosed Rattus norvegicus (rat) assessed as inhibition of maximal electroshock-induced seizure after 5 hr; type: functional
[19] = tested on: Mus musculus; experiment: Anticonvulsant activity in ip dosed Mus musculus (mouse) assessed as inhibition of maximal electroshock-induced seizure after 1 hr; type: functional
[20] = tested on: Rattus norvegicus; experiment: Anticonvulsant activity in po dosed Rattus norvegicus (rat) assessed as inhibition of maximal electroshock-induced seizure after 0.5 hr; type: functional
[21] = tested on: Mus musculus; experiment: Anticonvulsant activity in ip dosed Mus musculus (mouse) assessed as inhibition of maximal electroshock-induced seizure after 0.25 hr; type: functional
[22] = tested on: Rattus norvegicus; experiment: Protective index, ratio of TD50 for ip dosed Rattus norvegicus (rat) to ED50 for ip dosed rat assessed as inhibition of maximal electroshock-induced seizure; type: functional
[23] = tested on: Rattus norvegicus; experiment: Anticonvulsant activity in ip dosed Rattus norvegicus (rat) assessed as inhibition of subcutaneous pentylene tetrazole-induced seizure; type: functional
[24] = tested on: Rattus norvegicus; experiment: Anticonvulsant activity in ip dosed Rattus norvegicus (rat) assessed as inhibition of maximal electroshock-induced seizure; type: functional
[25] = tested on: Rattus norvegicus; experiment: Anticonvulsant activity in po dosed Rattus norvegicus (rat) assessed as inhibition of maximal electroshock-induced seizure after 1 hr; type: functional

Oc1ccccc1-c1nnc(Nc2cccc(F)c2)s1
inhibition (INH) [1]: 70%

O=C1NC(=O)C(c2ccccc2)(c2ccccc2)N1 [PHENYTOIN]
ED50 [2]: 30 mg/kg

COC(=O)C1C(=O)C=C(Nc2cc(C)on2)CC1C (stereo not drawn)
ED50 [1]: 68.9 mg/kg | Ratio TD50/ED50 [3]: >7.3 | TD50 [4]: > 500 mg/kg

CCOc1ccc2c(c1)c(C[C@H](C)N)c1n2CCC1
EC50 [5]: 4 nM | Activity [6]: 87%

CC1(C)C(C(=O)NC(N)=O)C1(C)C [2,2,3,3-TETRAMETHYLCYCLOPROPANECARBONYLUREA]
ED50 [7]: 29 mg/kg | ED50 [8]: 90 mg/kg

O=C1NCCCCC1(O)c1ccccc1 (stereo not drawn)
ED50 [1]: 63 mg/kg | ED50 [9]: 74 mg/kg

Clc1ccc(-c2ccc(-c3cc4c5c(c3)[C@@H]3CNC[C@@H]3N5CCCS4)cc2)c(Cl)c1
EC50 [10]: 3 nM

Cc1cc(NC2=CC(=O)C(C(=O)OC(C)(C)C)C(C)C2)no1 (stereo not drawn)
TD50 [11]: > 500 mg/kg | Ratio TD50/ED50 [12]: >17.8

O=C1CC2(CCCC2)C(=O)N1OCc1ccccc1
PI [13]: >4.5

C[C@H]1CN(c2ccc(C(F)(F)F)c3ccoc23)CCN1
bioavailability [14]: 83%

CCc1cc2c(ccc3cnn(C[C@H](C)N)c32)o1
Activity [15]: 97%

Cc1c2n(c3c(C)c(Cl)ccc13)C(C)NCC2 (stereo not drawn)
EC50 [16]: 0.4 nM

CCCC(CCC)C(=O)[O-].[Na+] [VALPROATE SODIUM]
inhibition (INH) [17]: 80%

Cc1noc(C)c1COc1cc(F)c(COC(=O)N2[C@H](C)CNC[C@@H]2C)c(F)c1
Activity [6]: 91%

CCNc1nnc(-c2ccccc2O)s1
inhibition (INH) [1]: 90%

CCC1(c2ccccc2)C(=O)NC(=O)NC1=O [PHENOBARBITAL]
ED50 [18]: 9.1 mg/kg | ED50 [19]: 22 mg/kg

CC(=O)NN(C(=O)NCc1ccccc1)c1nccs1
ED50 [20]: 6.2 mg/kg | ED50 [21]: 22 mg/kg | Ratio TD50/ED50 [3]: 5.4 | TD50 [11]: > 250 mg/kg | Ratio TD50/ED50 [12]: >40

C1CC2CNCCN3C2C(C1)[C@H]1CCC[C@H]13 (stereo partly drawn)
EC50 [10]: 76 nM

O=C(NCc1ccccc1F)c1ccccn1 [PICOLINIC ACID FLUOROBENZYLAMIDE]
Ratio TD50/ED50 [22]: <3.4 | ED50 [23]: > 50 mg/kg | ED50 [24]: 14.7 mg/kg

CC(=O)NC(C)C(=O)NCc1ccccc1 (stereo not drawn)
ED50 [25]: 48 mg/kg | Ratio TD50/ED50 [3]: 5.9 | ED50 [19]: 77 mg/kg | Ratio TD50/ED50 [12]: >20

CCOC(=O)C1C(=O)C=C(Nc2cc(C)on2)CC1C (stereo not drawn)
TD50 [11]: > 500 mg/kg | Ratio TD50/ED50 [12]: >49.6
